A word on the IC50: it is the point on the concentration scale where inhibition reaches its midpoint. Read a high IC50 as weaker potency. The term EC50 denotes the midpoint of the concentration-response curve. Lower therefore signals greater potency. A word on the logD: it is the decadic logarithm of the distribution of all forms, ionised or not, between an organic phase and buffer at a given pH. One may read the solubility as the concentration that dissolves in the medium under given conditions. The Papp A→B is the apparent permeability from the apical to the basolateral side of a cell layer. Usually inhibition in vivo stands for how much of the control response was suppressed.

Here are results for eight compounds from ChEMBL document CHEMBL3217479, “Overcoming retinoic acid receptor- based testicular toxicity in the optimisation of glucokinase activators” (Medchemcomm, 2011).

Values after ≈ are worked out from the molar mass of the structure shown.

Series [1] deals with T1, Retinoic acid receptor alpha (Homo sapiens, UniProt P10276).
T1 sequence (P10276 whole entry): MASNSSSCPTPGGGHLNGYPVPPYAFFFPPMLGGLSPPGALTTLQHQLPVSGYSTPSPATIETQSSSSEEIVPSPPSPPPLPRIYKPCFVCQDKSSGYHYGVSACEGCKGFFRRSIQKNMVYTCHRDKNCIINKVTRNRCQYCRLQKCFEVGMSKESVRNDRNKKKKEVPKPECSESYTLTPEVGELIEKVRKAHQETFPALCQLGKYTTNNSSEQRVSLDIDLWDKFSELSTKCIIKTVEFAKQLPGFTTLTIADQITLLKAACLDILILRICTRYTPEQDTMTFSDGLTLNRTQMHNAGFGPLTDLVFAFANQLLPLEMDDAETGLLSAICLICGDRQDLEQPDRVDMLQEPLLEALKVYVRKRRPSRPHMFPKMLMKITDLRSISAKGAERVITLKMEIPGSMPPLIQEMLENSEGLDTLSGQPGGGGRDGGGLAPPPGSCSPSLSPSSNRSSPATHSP
Nature of the series: Inhibition of RAR alpha (unknown origin).

The target in series [2] is T2, Retinoic acid receptor beta (Homo sapiens, UniProt P10826).
T2 sequence (P10826 whole entry): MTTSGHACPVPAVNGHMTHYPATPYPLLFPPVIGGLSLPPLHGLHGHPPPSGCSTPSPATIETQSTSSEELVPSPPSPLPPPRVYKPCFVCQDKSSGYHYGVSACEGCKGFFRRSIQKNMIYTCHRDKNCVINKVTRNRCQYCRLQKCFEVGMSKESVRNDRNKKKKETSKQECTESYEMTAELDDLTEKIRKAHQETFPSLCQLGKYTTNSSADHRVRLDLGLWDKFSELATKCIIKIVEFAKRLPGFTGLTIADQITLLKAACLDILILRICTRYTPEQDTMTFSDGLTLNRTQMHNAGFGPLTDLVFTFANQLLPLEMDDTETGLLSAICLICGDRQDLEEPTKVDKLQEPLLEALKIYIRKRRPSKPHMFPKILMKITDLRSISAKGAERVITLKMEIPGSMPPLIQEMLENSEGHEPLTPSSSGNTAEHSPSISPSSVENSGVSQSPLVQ
The series can be described thus: Inhibition of RAR beta (unknown origin).

The target in series [3] is T3, Retinoic acid receptor gamma (Homo sapiens, UniProt P13631).
T3 sequence (P13631 whole entry): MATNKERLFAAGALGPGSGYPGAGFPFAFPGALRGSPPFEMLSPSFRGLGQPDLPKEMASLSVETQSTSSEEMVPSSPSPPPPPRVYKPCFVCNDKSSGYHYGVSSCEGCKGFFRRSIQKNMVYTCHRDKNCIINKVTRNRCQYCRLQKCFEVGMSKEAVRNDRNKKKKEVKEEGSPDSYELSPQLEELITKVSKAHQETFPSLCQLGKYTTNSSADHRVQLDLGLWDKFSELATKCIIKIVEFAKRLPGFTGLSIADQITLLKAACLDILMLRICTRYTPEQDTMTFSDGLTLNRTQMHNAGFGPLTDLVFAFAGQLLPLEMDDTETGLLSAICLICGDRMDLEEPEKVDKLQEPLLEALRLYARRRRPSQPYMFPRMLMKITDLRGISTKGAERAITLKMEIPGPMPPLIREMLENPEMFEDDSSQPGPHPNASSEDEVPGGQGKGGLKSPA
The series can be described thus: Inhibition of RAR gamma (unknown origin).

Series [4] can be described thus: Toxicity in testis (unknown origin). Type of series: tissue-based.
For series [5], the target named is T4, Hexokinase-4 (Homo sapiens, UniProt P35557).
T4 sequence (P35557 whole entry): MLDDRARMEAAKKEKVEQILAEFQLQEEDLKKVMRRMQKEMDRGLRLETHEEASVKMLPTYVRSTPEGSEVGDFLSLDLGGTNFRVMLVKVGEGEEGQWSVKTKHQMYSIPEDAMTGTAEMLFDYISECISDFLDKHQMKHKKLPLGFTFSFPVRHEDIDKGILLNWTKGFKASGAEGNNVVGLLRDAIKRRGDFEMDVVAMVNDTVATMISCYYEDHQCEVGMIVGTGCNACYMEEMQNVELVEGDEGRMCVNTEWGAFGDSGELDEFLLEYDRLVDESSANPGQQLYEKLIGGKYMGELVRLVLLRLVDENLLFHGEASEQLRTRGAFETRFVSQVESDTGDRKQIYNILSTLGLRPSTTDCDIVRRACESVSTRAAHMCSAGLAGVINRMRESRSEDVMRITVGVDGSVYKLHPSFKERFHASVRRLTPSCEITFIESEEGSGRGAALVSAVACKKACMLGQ
Nature of the series: Activation of glucokinase (unknown origin).

Series [6] can be described thus: Lipophilicity, log D of the compound. It counts as physicochemical. The conditions noted are these: octanol/water.
Series [7] can be described thus: Solubility of the compound. Type of series: physicochemical.
The nature of series [8]: Apparent permeability from apical to basolateral side of human Caco2 cells. It counts as ADME, cell-based. The conditions noted are these: Caco-2.
Series [9] has as its system Rattus norvegicus. The series can be described thus: Antidiabetic activity in rat assessed as reduction of glucose AUC at 10 mg/kg by oral glucose tolerance test. Type of series: functional.
For series [10], the system named is Rattus norvegicus. Nature of the series: Antidiabetic activity in rat assessed as reduction of glucose AUC at 3 mg/kg by oral glucose tolerance test. It counts as functional.
The target in series [11] is Voltage-gated inwardly rectifying potassium channel KCNH2 (Homo sapiens, UniProt Q12809).
Sequence of Voltage-gated inwardly rectifying potassium channel KCNH2 (Q12809 whole entry): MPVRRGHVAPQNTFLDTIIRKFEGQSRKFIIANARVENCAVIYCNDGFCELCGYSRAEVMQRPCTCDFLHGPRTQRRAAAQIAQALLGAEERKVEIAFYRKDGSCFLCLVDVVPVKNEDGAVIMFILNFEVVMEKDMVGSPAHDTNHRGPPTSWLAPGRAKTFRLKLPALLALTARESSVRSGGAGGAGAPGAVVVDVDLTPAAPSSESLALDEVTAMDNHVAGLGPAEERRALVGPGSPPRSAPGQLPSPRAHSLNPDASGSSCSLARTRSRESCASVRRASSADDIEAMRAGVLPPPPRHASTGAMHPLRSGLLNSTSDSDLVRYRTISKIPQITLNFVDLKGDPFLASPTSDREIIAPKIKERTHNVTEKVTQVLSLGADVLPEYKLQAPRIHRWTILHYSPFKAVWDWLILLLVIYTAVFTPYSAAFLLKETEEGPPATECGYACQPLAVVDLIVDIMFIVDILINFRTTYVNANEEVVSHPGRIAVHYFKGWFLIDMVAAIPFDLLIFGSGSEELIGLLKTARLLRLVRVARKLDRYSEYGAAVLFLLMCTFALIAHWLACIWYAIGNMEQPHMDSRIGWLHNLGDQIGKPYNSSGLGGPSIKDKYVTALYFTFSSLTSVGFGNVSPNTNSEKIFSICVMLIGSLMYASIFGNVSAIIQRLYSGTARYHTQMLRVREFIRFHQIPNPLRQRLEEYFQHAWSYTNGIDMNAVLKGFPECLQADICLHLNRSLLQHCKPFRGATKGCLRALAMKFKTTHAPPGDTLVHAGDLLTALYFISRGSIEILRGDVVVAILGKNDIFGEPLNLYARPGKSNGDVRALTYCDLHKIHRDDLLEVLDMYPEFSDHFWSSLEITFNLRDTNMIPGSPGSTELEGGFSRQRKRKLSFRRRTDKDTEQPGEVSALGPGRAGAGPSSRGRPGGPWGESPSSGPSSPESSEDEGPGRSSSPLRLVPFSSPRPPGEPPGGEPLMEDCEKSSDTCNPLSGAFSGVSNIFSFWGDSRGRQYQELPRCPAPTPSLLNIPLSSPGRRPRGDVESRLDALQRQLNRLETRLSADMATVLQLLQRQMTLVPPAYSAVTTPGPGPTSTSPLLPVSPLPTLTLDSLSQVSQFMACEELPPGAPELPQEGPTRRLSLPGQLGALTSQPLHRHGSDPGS

For the compound `O=C(O)c1ccc(NC(=O)c2cc(OCc3ccccc3F)cc(OCc3ccccc3F)c2)nc1`, the 50% inhibitory concentration (IC50) in series [1] worked out at 0.0111 µM; in series [2] it was 0.007 µM; in [3] it was 1.2 µM. The Activity entry in series [4] is “Toxic”.
`COC[C@H](C)Oc1cc(Oc2cc(F)cc(F)c2)cc(C(=O)Nc2nccs2)c1` registered a half-maximal effective concentration (EC50) in series [5] of 0.07 µM. In [6], this compound had a logD of 4.1. This compound yielded a solubility in [7] of under 0.7 µM.
For `COC[C@H](C)Oc1cc(Oc2ccc(S(C)(=O)=O)cc2)cc(C(=O)Nc2ccc(C(=O)O)cn2)c1`, the log distribution coefficient (logD) in [6] was -0.4. This compound also showed a solubility in [7] of over 3000 µM. In addition, the Papp A→B in series [8] is 0.3 ×10⁻⁶ cm/s.
For the compound `COC[C@H](C)Oc1cc(O[C@@H](C)Cc2ccccc2)cc(C(=O)Nc2ccc(C(=O)O)cn2)c1`, the IC50 in [1] is 0.47 µM; in series [2], 32 µM; in series [3] it was over 1000 µM. In series [4], the Activity entry is “Toxic”.
In the case of `COC[C@H](C)Oc1cc(Oc2ccc(S(C)(=O)=O)cc2)cc(C(=O)Nc2nccs2)c1`, the EC50 in series [5] amounted to 0.06 µM. This compound returned a logD in [6] of 3.2. The compound also displayed a solubility in series [7] of 20 µM (≈ 9.25 µg/mL). For the same compound, in series [8], the Papp A→B was found to be 54 ×10⁻⁶ cm/s. Besides, the inhibition in vivo at 10 mg/kg in series [9] turned out to be 29%. Also, the IC50 in series [1] was over 30 µM. The Activity entry in series [4] is reported as “Non-toxic”.
Regarding `CC(C)COc1cc(OC(C)C)cc(C(=O)Nc2ccc(C(=O)O)cn2)c1`, the IC50 came to 0.01 µM in series [1], 0.135 µM in series [2] and 22 µM in series [3]. For the same compound, the Activity result in [4] is “Toxic”.
For the compound `COC[C@H](C)Oc1cc(Oc2ccc(S(C)(=O)=O)cc2)cc(C(=O)Nc2nc(C)ns2)c1`, in series [5], the EC50 was 0.11 µM. The same compound gave a pH-dependent lipophilicity (logD) in series [6] of 2.9. The amount in solution in series [7] (solubility) came to 129 µM (≈ 61.6 µg/mL). Besides, the Papp A→B in series [8] worked out at 29 ×10⁻⁶ cm/s. Moreover, in [10], the inhibition in vivo at 3 mg/kg was 27%. Besides, the IC50 is over 30 µM in series [1] and 7.5 µM in series [11]. In addition, the Activity entry in series [4] is reported as “Non-toxic”.
As to `COC[C@H](C)Oc1cc(Oc2cc(F)cc(F)c2)cc(C(=O)Nc2ccc(C(=O)O)cn2)c1`, the logD in series [6] came to 1.4. The compound further came in with a solubility in [7] of 805 µM (≈ 369 µg/mL). In addition, the Papp A→B in series [8] was 7.4 ×10⁻⁶ cm/s. Further, the figures for the half-maximal inhibitory concentration (IC50) in [1], in series [2] and in [3] were under 0.001 µM, under 0.001 µM and 19 µM, respectively. In addition, the Activity entry in [4] is reported as “Toxic”.
